The text below walks through data of PMC6150295, “Synthesis and Biological Evaluation of 2H-Indazole Derivatives: Towards Antimicrobial and Anti-Inflammatory Dual Agents” (Molecules : A Journal of Synthetic Chemistry and Natural …, 2017).

Values after ≈ are worked out from the molar mass of the structure shown.

The first data set relates to Candida glabrata. The data set is described as follows: Disk diffusion susceptibility test. Format: cell-based. As to conditions: 5 mg per disc, 37 °C, 24 h. A general note: In agar diffusion tests the substance spreads into inoculated agar from a disc or well.
In the case of `c1ccc(-n2cc3ccccc3n2)cc1` [Compound 7, 2-Phenyl-2H-indazole], the “Inhibition (positive / none) C. glabrata” value is given as “-”.
Still for that read-out and setting: under `CS(=O)(=O)c1ccc(-n2nc3ccccc3c2-c2ccccc2)cc1` [Compound 21, 2-(4-(Methylsulfonyl)phenyl)-3-phenyl-2H-indazole] stands “-”; under `CS(=O)(=O)c1ccc(-c2c3ccccc3nn2-c2ccccc2)cc1` [Compound 26, 3-(4-(Methylsulfonyl)phenyl)-2-phenyl-2H-indazole], “-”.

The same data set, now with this note: positive control, ketoconazole 50 µg.
`CC(=O)N1CCN(c2ccc(OCC3COC(Cn4ccnc4)(c4ccc(Cl)cc4Cl)O3)cc2)CC1` (stereo not drawn) [Ketoconazole, reference compound]: the “Inhibition (positive / none) C. glabrata” value is “+”.

For another data set, the system named is Giardia intestinalis isolate IMSS:0981:1. The data set is described as follows: In vitro antiprotozoal assay (trophozoite subculture method). It counts as cell-based. The following applies: Giardia duodenalis; trophozoites, 48 h with compound then 48 h subculture without drug; read-out: IC50 (µM) G. intestinalis. As to the method:
(§1) The in vitro antiprotozoal assays against E. histolytica, G. intestinalis, and T. vaginalis of the 2-phenyl-2H-indazole and 2,3-diphenyl-2H-indazole derivatives were carried out following the method previously described. Metronidazole (MTZ) and albendazole (ABZ) were used as reference drugs. […] Similarly, compound 7, having a phenyl at position 2, has good activity against the three protozoa, ranking third in activity for T. vaginalis and forth against G. intestinalis and E. histolytica. […] These derivatives had groups H, COOCH3, Cl, and SO2CH3 at positions 2 and 3, substituents that induced the best response in 2-phenyl-2H-indazole derivatives. In addition, carboxylic acids 20 and 25 were of interest for comparative purposes with ester derivatives.
(§2) Trichomonas vaginalis strain GT3, Giardia intestinalis isolate IMSS:0981:1, and Entamoeba histolytica strain HM1-IMSS were used. Trophozoites of G. intestinalis were maintained in a TYI-S-33 medium supplemented with 10% calf serum and bovine bile. E. histolytica and T. vaginalis trophozoites were maintained in TYI-S-33 medium supplemented with 10% bovine serum. Briefly, 5 × 10^4 trophozoites of G. intestinalis or T. vaginalis, or 6 × 10^3 trophozoites of E. histolytica were incubated for 48 h at 37 °C with different concentrations of the compound to be tested, each added as solutions in DMSO. As a negative control, parasite cultures received an equivalent amount of DMSO only, while albendazole and metronidazole were included as positive controls. At the end of the treatment period, the cells were washed and subcultured for another 48 h in a fresh medium to which no drug was added. […] Experiments were carried out in triplicate and repeated at least twice.
For `c1ccc(-n2cc3ccccc3n2)cc1` [Compound 7, 2-Phenyl-2H-indazole], the IC50 – broadly, the point on the concentration scale where inhibition reaches its midpoint – turned out to be 0.113 ± 0.0218 µM.
For `CS(=O)(=O)c1ccc(-n2nc3ccccc3c2-c2ccccc2)cc1` [Compound 21, 2-(4-(Methylsulfonyl)phenyl)-3-phenyl-2H-indazole], the IC50 was determined as 0.124 ± 0.0122 µM.
On the same count and under the same terms, with `CS(=O)(=O)c1ccc(-c2c3ccccc3nn2-c2ccccc2)cc1` [Compound 26, 3-(4-(Methylsulfonyl)phenyl)-2-phenyl-2H-indazole] the figure was 0.106 ± 0.0081 µM.

For the next data set, the system named is Entamoeba histolytica strain HM1-IMSS. Described as above. Format: cell-based. The following applies: 17 compared with 8; 20 compared to 13; 26 compared to 21. The procedure: as §1, §2
With `CS(=O)(=O)c1ccc(-c2c3ccccc3nn2-c2ccccc2)cc1` [Compound 26, 3-(4-(Methylsulfonyl)phenyl)-2-phenyl-2H-indazole], the “improvement in potency against E. histolytica relative to the analog” value was “four-fold”.

The data set is the same for the next values; noted with them: Entamoeba histolytica; trophozoites, 48 h with compound then 48 h subculture without drug; read-out: IC50 (µM) E. histolytica.
As for `c1ccc(-n2cc3ccccc3n2)cc1` [Compound 7, 2-Phenyl-2H-indazole], the IC50 is 0.0798 ± 0.0036 µM.
Same read-out and setting: under `CS(=O)(=O)c1ccc(-n2nc3ccccc3c2-c2ccccc2)cc1` [Compound 21, 2-(4-(Methylsulfonyl)phenyl)-3-phenyl-2H-indazole] stands 0.208 ± 0.0061 µM; under `CS(=O)(=O)c1ccc(-c2c3ccccc3nn2-c2ccccc2)cc1` [Compound 26, 3-(4-(Methylsulfonyl)phenyl)-2-phenyl-2H-indazole], 0.0459 ± 0.0081 µM.

The next data set has as its system Trichomonas vaginalis strain GT3. Described as above. It counts as cell-based. The following applies: Trichomonas vaginalis, GT3; trophozoites, 48 h with compound then 48 h subculture without drug; read-out: IC50 (µM) T. vaginalis. As to the method: as §1, §2
Consider `c1ccc(-n2cc3ccccc3n2)cc1` [Compound 7, 2-Phenyl-2H-indazole], for which the IC50 stood at 0.118 ± 0.0218 µM.
The same measure, in the same setting: under `CS(=O)(=O)c1ccc(-n2nc3ccccc3c2-c2ccccc2)cc1` [Compound 21, 2-(4-(Methylsulfonyl)phenyl)-3-phenyl-2H-indazole] stands 0.214 ± 0.0101 µM; under `CS(=O)(=O)c1ccc(-c2c3ccccc3nn2-c2ccccc2)cc1` [Compound 26, 3-(4-(Methylsulfonyl)phenyl)-2-phenyl-2H-indazole], 0.184 ± 0.0162 µM.

A further data set deals with Candida albicans. The data set is described as follows: Disk diffusion susceptibility test. As to conditions: 5 mg per disc, 37 °C, 24 h. Format: cell-based.
Turning to `c1ccc(-n2cc3ccccc3n2)cc1` [Compound 7, 2-Phenyl-2H-indazole], the “Inhibition (positive / none) C. albicans” value was “-”.
Consider `CS(=O)(=O)c1ccc(-n2nc3ccccc3c2-c2ccccc2)cc1` [Compound 21, 2-(4-(Methylsulfonyl)phenyl)-3-phenyl-2H-indazole], for which the “Inhibition (positive / none) C. albicans” value is given as “-”.
Regarding `CS(=O)(=O)c1ccc(-c2c3ccccc3nn2-c2ccccc2)cc1` [Compound 26, 3-(4-(Methylsulfonyl)phenyl)-2-phenyl-2H-indazole], the “Inhibition (positive / none) C. albicans” value is “-”.

Still in this data set, the particulars now being: positive control, ketoconazole 50 µg.
Turning to `CC(=O)N1CCN(c2ccc(OCC3COC(Cn4ccnc4)(c4ccc(Cl)cc4Cl)O3)cc2)CC1` (stereo not drawn) [Ketoconazole, reference compound], the “Inhibition (positive / none) C. albicans” value was “+”.

Tested on in the next data set: not given
Experiment: not given
Settings: not given
With `c1ccc(-n2cc3ccccc3n2)cc1` [Compound 7, 2-Phenyl-2H-indazole], the melting point – broadly, the temperature of the solid-liquid transition – is 81.2 to 81.6 °C.
Molecule `CS(=O)(=O)c1ccc(-n2nc3ccccc3c2-c2ccccc2)cc1` [Compound 21, 2-(4-(Methylsulfonyl)phenyl)-3-phenyl-2H-indazole] had a melting point of 101.8 to 102.7 °C.
Take `CS(=O)(=O)c1ccc(-c2c3ccccc3nn2-c2ccccc2)cc1` [Compound 26, 3-(4-(Methylsulfonyl)phenyl)-2-phenyl-2H-indazole]: the melting point lay within 206.9 to 208.8 °C.

Another data set relates to Salmonella enterica serovar Typhi. Description: Disk diffusion susceptibility test. It counts as cell-based. The following applies: 5 mg per disc, 37 °C, 24 h.
As for `c1ccc(-n2cc3ccccc3n2)cc1` [Compound 7, 2-Phenyl-2H-indazole], the “Inhibition (positive / none) S. Typhi” value is recorded as “+”.
The same measure, in the same setting: under `CS(=O)(=O)c1ccc(-n2nc3ccccc3c2-c2ccccc2)cc1` [Compound 21, 2-(4-(Methylsulfonyl)phenyl)-3-phenyl-2H-indazole] stands “-”.
The same measure, in the same setting: with `CS(=O)(=O)c1ccc(-c2c3ccccc3nn2-c2ccccc2)cc1` [Compound 26, 3-(4-(Methylsulfonyl)phenyl)-2-phenyl-2H-indazole] the entry was “-”.

Still in this data set, the particulars now being: Salmonella enterica, TYPHI, read-out: Zone of inhibition at 5 mg per disc (mm) S. Typhi.
In the case of `c1ccc(-n2cc3ccccc3n2)cc1` [Compound 7, 2-Phenyl-2H-indazole], the zone of inhibition (commonly the extent of the growth-free halo in a diffusion test) at 5000 µg/disc was determined as 9 mm.

A further data set addresses T1, human recombinant cyclooxygenase-2 (Homo sapiens, UniProt P35354).
T1 construct: purchased Cayman Chemical 560131
T1 sequence (P35354 18-604): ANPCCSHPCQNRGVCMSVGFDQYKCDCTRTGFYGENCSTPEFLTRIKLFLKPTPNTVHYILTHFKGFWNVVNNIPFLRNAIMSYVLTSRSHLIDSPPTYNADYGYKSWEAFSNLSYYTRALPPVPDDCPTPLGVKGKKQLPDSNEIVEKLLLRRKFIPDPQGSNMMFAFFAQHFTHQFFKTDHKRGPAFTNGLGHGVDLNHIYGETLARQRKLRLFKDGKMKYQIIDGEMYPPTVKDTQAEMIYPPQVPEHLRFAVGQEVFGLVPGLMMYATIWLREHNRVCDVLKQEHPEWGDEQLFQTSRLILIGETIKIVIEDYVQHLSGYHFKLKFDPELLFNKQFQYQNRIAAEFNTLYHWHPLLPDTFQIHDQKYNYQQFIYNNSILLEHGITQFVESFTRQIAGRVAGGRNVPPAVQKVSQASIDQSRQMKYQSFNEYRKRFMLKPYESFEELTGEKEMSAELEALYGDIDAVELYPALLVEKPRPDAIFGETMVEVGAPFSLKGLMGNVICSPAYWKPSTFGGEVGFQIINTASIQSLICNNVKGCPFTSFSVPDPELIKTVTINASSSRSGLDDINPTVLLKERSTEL
Description: COX inhibitor screening assay (Cayman kit). It counts as biochemical. As to conditions: tested at 10 µM. As to the method: Additionally, molecular docking studies using AutoDock Vina software (TSRI, La Jolla, CA, USA) were performed to aid in the interpretation of the experimental results. […] Nevertheless, these compounds represent an interesting starting point towards the design of new antiparasitic compounds with an additional COX-2 inhibitory property.
Assays were carried out by duplicate following the instructions provided by the manufacturer.
Regarding `c1ccc(-n2cc3ccccc3n2)cc1` [Compound 7, 2-Phenyl-2H-indazole], the “% of Inhibition of COX-2” value is recorded as “Inactive”.
With `CS(=O)(=O)c1ccc(-n2nc3ccccc3c2-c2ccccc2)cc1` [Compound 21, 2-(4-(Methylsulfonyl)phenyl)-3-phenyl-2H-indazole], the inhibition – broadly, the percentage by which the read-out fell short of the control – at 10 µM was 44.5 ± 2.65%.
The same measure, in the same setting: under `CS(=O)(=O)c1ccc(-c2c3ccccc3nn2-c2ccccc2)cc1` [Compound 26, 3-(4-(Methylsulfonyl)phenyl)-2-phenyl-2H-indazole] stands 41.2 ± 5.93%.

A further data set deals with C. albicans. Description: Minimum inhibitory concentration (antimycotic effect). It counts as cell-based. As to conditions: Candida albicans.
Regarding `CC(=O)N1CCN(c2ccc(OCC3COC(Cn4ccnc4)(c4ccc(Cl)cc4Cl)O3)cc2)CC1` (stereo not drawn) [Ketoconazole, reference compound], the lowest concentration to inhibit growth (MIC) was 0.045 mM (≈ 23.9 µg/mL).

Another data set deals with Escherichia coli strain EDL933 (EHEC). The data set is described as follows: Disk diffusion susceptibility test. It counts as cell-based. The following applies: 5 mg per disc, 37 °C, 24 h.
For `c1ccc(-n2cc3ccccc3n2)cc1` [Compound 7, 2-Phenyl-2H-indazole], the “Inhibition (positive / none) E. coli 933” value was “-”.
As to `CS(=O)(=O)c1ccc(-n2nc3ccccc3c2-c2ccccc2)cc1` [Compound 21, 2-(4-(Methylsulfonyl)phenyl)-3-phenyl-2H-indazole], the “Inhibition (positive / none) E. coli 933” value is “-”.
`CS(=O)(=O)c1ccc(-c2c3ccccc3nn2-c2ccccc2)cc1` [Compound 26, 3-(4-(Methylsulfonyl)phenyl)-2-phenyl-2H-indazole]: the “Inhibition (positive / none) E. coli 933” value was “-”.

The test system of the next data set is Escherichia coli strain 042 (EAEC). The data set is described as follows: Disk diffusion susceptibility test. It counts as cell-based. The following applies: 5 mg per disc, 37 °C, 24 h.
Turning to `c1ccc(-n2cc3ccccc3n2)cc1` [Compound 7, 2-Phenyl-2H-indazole], the “Inhibition (positive / none) E. coli 042” value is “-”.
Still for that read-out and setting: under `CS(=O)(=O)c1ccc(-n2nc3ccccc3c2-c2ccccc2)cc1` [Compound 21, 2-(4-(Methylsulfonyl)phenyl)-3-phenyl-2H-indazole] stands “-”; under `CS(=O)(=O)c1ccc(-c2c3ccccc3nn2-c2ccccc2)cc1` [Compound 26, 3-(4-(Methylsulfonyl)phenyl)-2-phenyl-2H-indazole], “-”.

The next data set relates to C. glabrata. Description: Minimum inhibitory concentration (antimycotic effect). It counts as cell-based, Candida glabrata. As to conditions: Nakaseomyces glabratus.
Consider `CC(=O)N1CCN(c2ccc(OCC3COC(Cn4ccnc4)(c4ccc(Cl)cc4Cl)O3)cc2)CC1` (stereo not drawn) [Ketoconazole, reference compound], for which inhibition of growth (MIC) required 0.079 mM (≈ 42 µg/mL).
